{
  "source": "patent US4122077A",
  "about": "“Somatostatin analogs” (American Home Products Corporation, priority 1977, dated 1978)",
  "key": {"[1]": {"system": "glucagon", "experiment": "Suppression of growth hormone, glucagon and insulin (arginine-stimulated, nembutal rats): glucagon", "assay_type": "in vivo", "conditions": "100 μg/kg. s.c., arginine challenge", "description": "(§1) Albino male rats are arranged in three groups (nine rats/group) and injected i.p. with nembutal at 50mg/kg. 15 minutes after the nembutal injection they are injected s.c. according to group with (a) test compound, typically 10-2000 μg/kg.; (b) SRIF 200 μg/kg.; or (c) physiological saline. 10 minutes later 0.5 ml. of arginine (300 mg/ml., pH 7.2) is injected into the heart. The rats are decapitated 5 minutes after receiving the arginine, and the blood is collected into Trasylol-EDTA. Appropriate aliquots are then assayed for growth hormone, glucagon and insulin. […] Comparisons between control and experimental values are statistically evaluated by the analysis of variants method and statistical significance (p) at 0.05 or lower is used as the index of activity."}, "[2]": {"system": "growth hormone (GH)", "experiment": "Suppression of growth hormone (duration of activity after sc injection)", "assay_type": "in vivo, rats", "conditions": "1000 μg/kg. sc, rats", "description": "A subcutaneous (sc) injection of peptide solubilized or suspended in physiological saline, is given to Charles River CD® nonfasted male rats. Matched saline control solution sc injected rats serve as control animals so that every experimental rat is paired with a control rat. The rats are kept in separate cages and 20 minutes before the end of the test time period they are given an intraperitoneal (i.p.) injection of Nembutal® at a dose of 50 mg/kg. Blood samples are obtained by cardiac puncture and the plasma separated for the radioimmunoassay of growth hormone (GH) concentration (ng/ml.). Time periods after injection of 2, 4, 5, and 6 hours are generally used to test the duration of the activity of the peptide to suppress circulating peripheral GH levels. Comparisons between control and experimental GH values at each time are evaluated by the Student \"t\" test and statistical significance (p) at the 0.05 level or lower is used as the index of activity."}, "[3]": {"system": "insulin", "experiment": "Suppression of growth hormone, glucagon and insulin (arginine-stimulated, nembutal rats): insulin", "assay_type": "in vivo", "conditions": "100 μg/kg. s.c., arginine challenge", "description": "as §1"}, "[4]": {"system": "growth hormone", "experiment": "Suppression of growth hormone, glucagon and insulin (arginine-stimulated, nembutal rats): GH", "assay_type": "in vivo", "conditions": "100 μg/kg. s.c., arginine challenge (table 5)", "description": "as §1"}},
  "note": "Where a SMILES comes first, the peptide text is derived from it. Bridges are numbered along the chain shown (N, C = ends). [ ]: non-standard residue; d: D form.",
  "data": [
    {"smiles": "C[C@@H](O)[C@@H]1NC(=O)[C@H](Cc2ccccc2)NC(=O)[C@H]([C@@H](C)O)NC(=O)[C@H](CCCCN)NC(=O)[C@@H](Cc2c[nH]c3ccccc23)NC(=O)[C@H](Cc2ccccc2)NC(=O)[C@H](Cc2ccccc2)NC(=O)[C@@H](CCC(=O)O)NC(=O)[C@@H](Cc2ccc(O)cc2)NC(=O)[C@@H](N)CSSC[C@@H](C(=O)O)NC(=O)[C@H](CO)NC1=O", "note": "[J, L-Cysteinyl-D-Tyrosyl-D-Glutamyl-L-Phenylalanyl-L-Phenylalanyl-D-Tryptophyl-L-Lysyl-L-Threonyl-L-Phenylalanyl-L-Threonyl-L-Seryl-L-Cysteine Cyclic (1-12)-Disulfide] (H-C[dY][dE]FF[dW]KTFTSC-OH; disulfide 1-12)", "values": [
      {"measurement": "Glucagon", "setting": "[1]", "result": "45 ± 4", "unit": "pg/mL"},
      {"measurement": "GH, 2 Hours", "setting": "[2]; 2 hours", "result": "311 ± 68", "unit": "ng/mL"},
      {"measurement": "GH, 4 Hours", "setting": "[2]; 4 hours", "result": "179 ± 39", "unit": "ng/mL"},
      {"measurement": "Insulin", "setting": "[3]", "result": "263 ± 28", "unit": "μU/ml."},
      {"measurement": "GH", "setting": "[4]", "result": "128 ± 24"}
    ]}
  ]
}
